One data set concerns Abutilon. The experiment in a line: Post-emergence test. The data set is classed as in vivo. As to conditions: application rates of 15-750 g/ha, scored after three weeks vs untreated control. The procedure: (§1) Solvent: 5 parts by weight of acetone
(§2) Emulsifier: 1 part by weight of alkylaryl polyglycol ether
(§3) To prepare a suitable preparation of active compound, 1 part by weight of active compound is mixed with the stated amount of solvent, the stated amount of emulsifier is added, and the concentrate is diluted with water to the desired concentration.
(§4) Test plants which have a height of 5-15 cm are sprayed with the preparation of active compound in such a way that the desired amounts of active compound are in each case applied per unit area. The concentration of the spray mixture is chosen in such a way that the amounts of active compound desired in each case are applied in 1,000 liters of water/ha.
(§5) After three weeks, the degree of damage to the plants is scored in % damage in comparison with the development of the untreated control.

A further data set deals with Galium. Nature of the data set: Post-emergence test. The format is in vivo. The settings on record: application rates of 15-750 g/ha, scored after three weeks vs untreated control. The procedure:
as §1, §2, §3, §4, §5

A further data set concerns Sinapis. The experiment in a line: Post-emergence test. The format is in vivo. As to conditions: application rates of 15-750 g/ha, scored after three weeks vs untreated control. The procedure: as §1, §2, §3, §4, §5
For the next data set, the system named is wheat. Nature of the data set: Pre-emergence test (crop tolerance). The data set is classed as in vivo. The settings on record: application rates between 250 and 750 g/ha, scored after three weeks vs untreated control. The procedure:
as §1, §2, §3
(§6) Seeds of the test plants are sown in normal soil. After approx. 24 hours, the soil is sprayed with the preparation of active compound in such a way that the desired amounts of active compound are in each case applied per unit area. The concentration of the spray mixture is chosen in such a way that the desired amounts of active compound are in each case applied in 1,000 liters of water/ha.
as §5

The test system of the next data set is Solanum. The experiment in a line: Pre-emergence test. The format is in vivo. As to conditions: application rates between 250 and 750 g/ha, scored after three weeks vs untreated control. The procedure: as §1, §2, §3, §6, §5
A further data set relates to Lolium. The experiment in a line: Pre-emergence test. The format is in vivo. The settings on record: application rates between 250 and 750 g/ha, scored after three weeks vs untreated control. The procedure:
as §1, §2, §3, §6, §5

The test system of the next data set is Avena fatua. The experiment in a line: Pre-emergence test. The format is in vivo. As to conditions: application rates between 250 and 750 g/ha, scored after three weeks vs untreated control, 0% = no action, 100% = total destruction. The procedure:
as §1, §2, §3, §6, §5

The test system of a further data set is Matricaria. The experiment in a line: Pre-emergence test. The format is in vivo. The settings on record: application rates between 250 and 750 g/ha, scored after three weeks vs untreated control. The procedure:
as §1, §2, §3, §6, §5

In general, melting point refers to the temperature of the solid-liquid transition. `CC(C)(C)C(=O)Nc1ccc(Cl)cc1-n1c(=O)cc(C(F)(F)F)[nH]c1=O` registered a melting point of 276 °C.

Turning to `Cn1c(C(F)(F)F)cc(=O)n(-c2cc(Cl)ccc2NC(=O)C(C)(C)C)c1=O`, the melting point was 267 °C.

Take `Cn1c(C(F)(F)F)cc(=O)n(-c2ccc(Cl)cc2NC(=O)C(C)(C)C)c1=O` [Example 18]: the “degree of damage to the plants, Abutilon” value in the data set on Abutilon was determined as 100%. For the same molecule, the “degree of damage to the plants, Galium” value in the data set on Galium was 100%. For the same molecule, the “degree of damage to the plants, Sinapis” value in the data set on Sinapis came to 100%. Moreover, in the data set with wheat, the “degree of damage to the plants, wheat (crop plant, tolerated well)” value (“degree of damage to the plants, wheat” below) came to 0%. In the data set with Solanum, the “degree of damage to the plants, Solanum” value was determined as 100%. Besides, the “degree of damage to the plants, Lolium” value with Lolium turned out to be 100%. The “degree of damage to the plants, Avena fatua” value (“degree of damage … Avena fatua” for short) with Avena fatua was found to be 100%. Also, in the data set on Matricaria, the “degree of damage to the plants, Matricaria” value (shortened to “degree of damage … Matricaria”) turned out to be 100%.

For `Cn1c(C(F)(F)F)cc(=O)n(-c2ccc(Cl)cc2NC(=O)C2CC2)c1=O` [Example 19], the “degree of damage to the plants, Abutilon” value in the data set on Abutilon was 100%. In addition, the “degree of damage to the plants, Galium” value with Galium is on record as 100%. The “degree of damage to the plants, Sinapis” value with Sinapis worked out at 100%. The “degree of damage to the plants, wheat” value in the data set on wheat was 0%. Besides, the “degree of damage to the plants, Solanum” value in the data set with Solanum is on record as 100%. In addition, the “degree of damage to the plants, Lolium” value with Lolium was 100%. The “degree of damage … Avena fatua” value with Avena fatua is given as 100%. For the same molecule, the “degree of damage … Matricaria” value in the data set on Matricaria was determined as 100%.

For the molecule `CC(=O)Nc1cc(Cl)ccc1-n1c(=O)cc(C(F)(F)F)n(C)c1=O` [Example 20], the “degree of damage to the plants, Abutilon” value in the data set on Abutilon was 100%. Moreover, the “degree of damage to the plants, Galium” value in the data set with Galium is reported as 100%. The “degree of damage to the plants, Sinapis” value with Sinapis is recorded as 100%. Also, the “degree of damage to the plants, wheat” value in the data set with wheat is given as 0%. Further, the “degree of damage to the plants, Solanum” value with Solanum stood at 100%. In the data set on Lolium, the “degree of damage to the plants, Lolium” value was 100%. Moreover, the “degree of damage … Avena fatua” value in the data set with Avena fatua was determined as 100%. The “degree of damage … Matricaria” value in the data set with Matricaria is reported as 100%.

As to `Cn1c(C(F)(F)F)cc(=O)n(-c2ccc(Cl)cc2NC(=O)c2ccc(Cl)cc2)c1=O` [Example 23], in the data set with Abutilon, the “degree of damage to the plants, Abutilon” value is 100%. The “degree of damage to the plants, Galium” value with Galium is on record as 100%. Moreover, in the data set on Sinapis, the “degree of damage to the plants, Sinapis” value stood at 100%. The “degree of damage to the plants, wheat” value in the data set with wheat is 0%. Further, the “degree of damage to the plants, Solanum” value in the data set with Solanum was 100%. Also, the “degree of damage to the plants, Lolium” value in the data set with Lolium came out at 100%. Also, the “degree of damage … Avena fatua” value with Avena fatua came out at 100%. In addition, the “degree of damage … Matricaria” value in the data set with Matricaria is 100%.

Turning to `CC(C)C(=O)Nc1cc(Cl)ccc1-n1c(=O)cc(C(F)(F)F)n(C)c1=O` [Example 24], the “degree of damage to the plants, Abutilon” value in the data set on Abutilon came to 100%. In addition, in the data set with Galium, the “degree of damage to the plants, Galium” value stood at 100%. The “degree of damage to the plants, Sinapis” value in the data set on Sinapis was 100%. Also, the “degree of damage to the plants, wheat” value in the data set with wheat was found to be 0%. Also, the “degree of damage to the plants, Solanum” value with Solanum is on record as 100%. For the same molecule, the “degree of damage to the plants, Lolium” value in the data set on Lolium came out at 100%. Moreover, in the data set on Avena fatua, the “degree of damage … Avena fatua” value is reported as 100%. In addition, the “degree of damage … Matricaria” value with Matricaria turned out to be 100%.

For the molecule `CCNC(=S)Nc1ccccc1-n1c(=O)n(C2CC2)c(=O)n1C` [Example 102], in the data set with Abutilon, the “degree of damage to the plants, Abutilon” value is 100%. Besides, in the data set with Galium, the “degree of damage to the plants, Galium” value stood at 100%. The “degree of damage to the plants, Sinapis” value in the data set on Sinapis came out at 100%. Besides, the “degree of damage to the plants, wheat” value in the data set on wheat came to 0%. In addition, the “degree of damage to the plants, Solanum” value in the data set on Solanum was determined as 100%. The “degree of damage to the plants, Lolium” value in the data set on Lolium worked out at 100%. The “degree of damage … Avena fatua” value in the data set with Avena fatua turned out to be 100%. The “degree of damage … Matricaria” value in the data set with Matricaria stood at 100%.

(Values after patent US6602826B1, “Heterocyclically substituted aromatic amino compounds with a herbicidal effect” (Bayer Aktiengesellschaft, priority 1997, dated 2003).)
